Ten compounds from ChEMBL document CHEMBL1201862, “PubChem BioAssay data set” (2004) can be followed below.

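These data come from cells grown in 96-well plates and exposed to compound for 48 hours at five concentrations. The concentration for 50% growth inhibition is given as GI50.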 Active and inactive are the calls of the source. No stated cut-off is given here; in the data, active = GI50 up to about 1.1 µM and inactive = higher. Square brackets hold non-standard residues; d marks the D form. Peptide text beside a SMILES is read from it. * marks the point of attachment. X26 = COC1=CC(=O)N(C(=O)[C@@H](O*)C(C)C)[C@H]1Cc1ccccc1; NMeV = CN[C@H](C(=O)O)C(C)C; Hexanoyl = CCCCCC(=O)*

Common to all, as to assay: inhibition of tumour cell growth, NCI panel, 48 h
Experiment [1] has as its system EKVX.
The subject of experiment [2] is CCRF-CEM.
For experiment [3], the system named is NCI-H226.
Experiment [4] relates to OVCAR-8.
For experiment [5], the system named is HCT-15.
Experiment [6] has as its system SF-295.
The test system of experiment [7] is OVCAR-4.
For experiment [8], the system named is RXF 393.
In experiment [9] the test system is NCI-H460.
The subject of experiment [10] is NCI/ADR-RES.
In experiment [11] the test system is SW-620.
Experiment [12] has as its system HL-60.
In experiment [13] the test system is SF-539.
The subject of experiment [14] is HOP-62.
The subject of experiment [15] is MDA-N.
The subject of experiment [16] is A498.
Experiment [17] has as its system MDA-MB-231.
Experiment [18] has as its system MCF7.
The test system of experiment [19] is LOX IMVI.
The subject of experiment [20] is MOLT-4.

Take `CCCCCC(=O)N[C@H](C(=O)N[C@H](C(=O)N(C)[C@H](C(=O)N1CCC[C@H]1C(=O)N1CCC[C@H]1C(=O)O[C@H](C(=O)N1C(=O)C=C(OC)[C@@H]1Cc1ccccc1)C(C)C)C(C)C)C(C)C)C(C)C` (Hexanoyl-VV[NMeV]PP-X26): the GI50 in [1] is 85.9 µM (inactive); in experiment [2] it was 48.6 µM (inactive); in experiment [3], > 100 µM (inactive); in experiment [4], > 100 µM (inactive); in experiment [5] it was > 100 µM; in experiment [6] it was > 100 µM (inactive). The GI50 in experiment [7] was > 100 µM (inactive); in experiment [8], 23.2 µM (inactive); in experiment [9], > 100 µM (inactive); in [10], > 100 µM (inactive); in [11] it was > 100 µM (inactive); in experiment [12], > 100 µM (inactive). Besides, the GI50 in experiment [13] is 36.9 µM (inactive); in experiment [14], > 100 µM (inactive); in experiment [15], 33.8 µM (inactive); in experiment [16] it was 46.3 µM (inactive); in experiment [17] it was 34.2 µM (inactive); in experiment [18] it was 59.2 µM (inactive). Also, the GI50 is > 100 µM (inactive) in experiment [19] and 63 µM (inactive) in [20].
`CC1(C)OC(=O)C(C)(C)OC1=O`: the GI50 in [1] was > 100 µM (inactive); in experiment [2], > 100 µM (inactive); in experiment [3] it was > 100 µM (inactive); in experiment [4], > 100 µM (inactive); in experiment [5] it was > 100 µM; in [6], > 100 µM (inactive). The GI50 in [7], in experiment [8], in [9], in experiment [10], in [11] and in experiment [12] was > 100 µM (inactive) each time. Moreover, the GI50 in experiment [13], in [14], in experiment [15], in experiment [16], in [17] and in experiment [18] was > 100 µM (inactive) in each case. Further, the GI50 in experiment [19] and in experiment [20] was > 100 µM (inactive) each time.
With `CC(C)(C)N1C=[N+](C(C)(C)C)CC1`, the GI50 in [1] is > 100 µM (inactive); in experiment [2], > 100 µM (inactive); in [3], > 100 µM (inactive); in [4] it was > 100 µM (inactive); in experiment [5] it was > 100 µM; in experiment [6], > 100 µM (inactive). For the same compound, the GI50 in [7], in experiment [8], in [9], in [10], in [11] and in [12] was > 100 µM (inactive) throughout. Further, the GI50 in [13] was > 100 µM (inactive); in [14] it was > 100 µM (inactive); in [15] it was > 100 µM (inactive); in [16] it was 38.7 µM (inactive); in experiment [17], > 100 µM (inactive); in experiment [18] it was > 100 µM (inactive). For the same compound, the GI50 in [19] and in [20] was > 100 µM (inactive) each time.
As to `O=C1C=CC(=O)c2c1ccc1c3ccccc3n(CCCCCCCCn3c4ccccc4c4ccc5c(c43)C(=O)C=CC5=O)c21`, the GI50 in experiment [1] is > 100 µM (inactive); in experiment [2], > 100 µM (inactive); in [3], > 100 µM (inactive); in [4], > 100 µM (inactive); in experiment [5], > 100 µM; in experiment [6] it was > 100 µM (inactive). Also, the GI50 in experiment [7], in [8], in experiment [9], in experiment [10], in experiment [11] and in experiment [12] was > 100 µM (inactive) throughout. The GI50 in experiment [13], in [14], in experiment [15], in experiment [16], in experiment [17] and in experiment [18] was > 100 µM (inactive) throughout. Also, the GI50 is > 100 µM (inactive) in experiment [19] and 85.7 µM (inactive) in experiment [20].
For `Cc1c(C)c(C)n(C2OC(CO)C(O)C(O)C2O)c(=S)c1C#N` (stereo not given), the GI50 in [1] was > 100 µM (inactive); in experiment [2] it was > 100 µM (inactive); in [3], > 100 µM (inactive); in experiment [4], > 100 µM (inactive); in experiment [5] it was > 100 µM; in experiment [6], > 100 µM (inactive). The GI50 in experiment [7], in [8], in experiment [9], in [10], in experiment [11] and in experiment [12] was > 100 µM (inactive) each time. Further, the GI50 in experiment [13], in experiment [14], in experiment [15], in [16], in experiment [17] and in [18] was > 100 µM (inactive) in each case. In addition, the GI50 in experiment [19] and in experiment [20] was > 100 µM (inactive) each time.
Take `C=CN1CCN(c2ccccc2)P1(=O)Oc1ccccc1` (stereo not given): the GI50 was 45 µM (inactive) in experiment [1]; > 100 µM (inactive) in experiment [2]; 65.2 µM (inactive) in experiment [3]; 89.3 µM (inactive) in [4]; > 100 µM in [5]; > 100 µM (inactive) in experiment [6]. The GI50 in experiment [7] was > 100 µM (inactive); in experiment [8] it was 42.5 µM (inactive); in [9] it was > 100 µM (inactive); in experiment [10], 55.2 µM (inactive); in [11], > 100 µM (inactive); in experiment [12] it was > 100 µM (inactive). The GI50 was > 100 µM (inactive) in experiment [13]; > 100 µM (inactive) in [14]; 63.4 µM (inactive) in experiment [15]; > 100 µM (inactive) in [16]; 55.6 µM (inactive) in experiment [17]; > 100 µM (inactive) in experiment [18]. Also, the GI50 in [19] and in experiment [20] was > 100 µM (inactive) each time.
Consider `CC(=O)OCC1OC(OC2CC3C(C)(C)C(O)CC[C@]3(C)C3CCC45CC4(CCC5[C@@H](C)CC(O)C(O)C(C)(C)O)[C@]23C)C(O)C(O)C1O` (stereo not given in full), for which the GI50 in experiment [1] was > 10 µM (inactive); in experiment [2], > 10 µM (inactive); in [3] it was > 10 µM (inactive); in experiment [4], > 10 µM (inactive); in [5] it was > 10 µM; in experiment [6], > 10 µM (inactive). The GI50 in experiment [7], in experiment [8], in [9], in [10], in experiment [11] and in experiment [12] was > 10 µM (inactive) in each case. The GI50 in [13], in experiment [14], in experiment [15], in [16], in experiment [17] and in experiment [18] was > 10 µM (inactive) each time. Also, the GI50 in experiment [19] and in experiment [20] was > 10 µM (inactive) in each case.
For `O=C(/C=C/c1cccc(Br)c1)N1CCN(CCOC(c2ccccc2)c2ccccc2)CC1`, the GI50 in [1] is > 100 µM (inactive); in [2] it was 17.1 µM (inactive); in experiment [3], 45 µM (inactive); in [4], 55.5 µM (inactive); in experiment [5] it was 27.6 µM; in [6] it was 53.7 µM (inactive). In addition, the GI50 is 63.2 µM (inactive) in experiment [7]; 35.7 µM (inactive) in experiment [8]; 31.8 µM (inactive) in experiment [9]; 35.6 µM (inactive) in experiment [10]; 50.8 µM (inactive) in experiment [11]; 17.4 µM (inactive) in experiment [12]. The GI50 is 18.4 µM (inactive) in experiment [13]; > 100 µM (inactive) in [14]; 41.4 µM (inactive) in [15]; 44.9 µM (inactive) in experiment [16]; > 100 µM (inactive) in experiment [17]; 35 µM (inactive) in experiment [18]. For the same compound, the GI50 was 24.2 µM (inactive) in experiment [19] and 6.53 µM (inactive) in [20].
Turning to `COc1ccc2c(C)cc(N/N=C/c3ccc(C)s3)nc2c1`, the GI50 in [1] is 5.4 µM (inactive); in [2], 5.37 µM (inactive); in experiment [3] it was 13 µM (inactive); in experiment [4], 15.2 µM (inactive); in experiment [5] it was 4.21 µM; in experiment [6], 9.62 µM (inactive). Moreover, the GI50 in experiment [7] is 11.1 µM (inactive); in experiment [8], 14.3 µM (inactive); in [9], 5.27 µM (inactive); in experiment [10], 9.82 µM (inactive); in [11] it was 13.1 µM (inactive); in experiment [12], 7.05 µM (inactive). In addition, the GI50 in experiment [13] is 13.6 µM (inactive); in experiment [14], 18.7 µM (inactive); in experiment [15], 10.4 µM (inactive); in experiment [16] it was 19.4 µM (inactive); in [17], 6.49 µM (inactive); in [18], 6.24 µM (inactive). The values for the GI50 in experiment [19] and in experiment [20] were 3.46 µM (inactive) and 5.94 µM (inactive), respectively.
As for `Nc1nc(Cl)nc2c1ncn2C1CCC(COP(=O)(O)OP(=O)(O)OP(=O)(O)O)O1` (stereo not given), the GI50 is 40.1 µM (inactive) in experiment [1]; 44.3 µM (inactive) in experiment [2]; 27.7 µM (inactive) in experiment [3]; 21.4 µM (inactive) in [4]; 34.8 µM in [5]; 17.9 µM (inactive) in experiment [6]. Further, the GI50 in [7] was 24.9 µM (inactive); in experiment [8], 24.5 µM (inactive); in experiment [9] it was 41.6 µM (inactive); in [10], 21.8 µM (inactive); in [11], 32.4 µM (inactive); in [12] it was 28.5 µM (inactive). Besides, the GI50 in [13] is 67.3 µM (inactive); in experiment [14] it was 19.2 µM (inactive); in [15] it was 38 µM (inactive); in experiment [16] it was 26.1 µM (inactive); in experiment [17], 26.8 µM (inactive); in experiment [18], 29.4 µM (inactive). Also, the values for the GI50 in [19] and in [20] were 28.3 µM (inactive) and 65 µM (inactive), respectively.
